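Results reflect a 48-hour exposure of cells in 96-well plates to compound at five concentrations. Here, GI50 denotes the concentration required for 50% inhibition of growth. TGI marks complete inhibition of growth.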
Tests used:
Experiment in all cases: NCI-60 cell line screen, 48 h
OVCAR-8 ovarian = test system: OVCAR-8 ovarian
MALME-3M melanoma = test system: MALME-3M melanoma
NCI/ADR-RES ovarian = test system: NCI/ADR-RES ovarian
SNB-75 CNS = test system: SNB-75 CNS
SF-539 CNS = test system: SF-539 CNS
HT29 colon = test system: HT29 colon
NCI-H460 lung = test system: NCI-H460 lung
SN12C renal = test system: SN12C renal
SK-MEL-2 melanoma = test system: SK-MEL-2 melanoma
TK-10 renal = test system: TK-10 renal

## CC(C)OC(=S)Nc1ccc(Cl)c(/C=N/OC(C)(C)C)c1
OVCAR-8 ovarian
  TGI: 17 µM
MALME-3M melanoma
  TGI: 34.2 µM
NCI/ADR-RES ovarian
  TGI: 16.8 µM
SNB-75 CNS
  TGI: 54.7 µM
SF-539 CNS
  TGI: 31.7 µM
HT29 colon
  TGI: 28.6 µM
NCI-H460 lung
  TGI: 33.1 µM
SN12C renal
  TGI: 31.6 µM
SK-MEL-2 melanoma
  TGI: 37.5 µM
TK-10 renal
  TGI: 17.1 µM

## CS(=O)(=O)OCCCNCCCOS(C)(=O)=O
OVCAR-8 ovarian
  TGI: 6630 µM
MALME-3M melanoma
  TGI: 4890 µM
NCI/ADR-RES ovarian
  TGI: 6040 µM
SNB-75 CNS
  TGI: 6940 µM
SF-539 CNS
  TGI: 5170 µM
HT29 colon
  TGI: 4480 µM
NCI-H460 lung
  TGI: 2450 µM
SN12C renal
  TGI: 3830 µM
SK-MEL-2 melanoma
  TGI: 3690 µM
TK-10 renal
  TGI: 6930 µM

## CCCc1cc(=O)n2c(C(=O)Nc3ccc(F)cc3)c(C(=O)Nc3ccc(F)cc3)sc2n1
OVCAR-8 ovarian
  GI50: 4.57 µM
  TGI: 28 µM
MALME-3M melanoma
  GI50: 36 µM
  TGI: 91.3 µM
NCI/ADR-RES ovarian
  GI50: 134 µM
  TGI: > 160 µM
SNB-75 CNS
  GI50: 3.48 µM
  TGI: 13.8 µM
SF-539 CNS
  GI50: > 160 µM
  TGI: > 160 µM
HT29 colon
  GI50: 47.1 µM
  TGI: > 160 µM
NCI-H460 lung
  GI50: 73.4 µM
  TGI: > 160 µM
SK-MEL-2 melanoma
  GI50: 24.1 µM
  TGI: 54.4 µM
TK-10 renal
  GI50: 32.3 µM
  TGI: 74.7 µM

## COc1cc(C2C3=C(COC3=O)N(CCO)c3cc4c(cc32)OCCO4)cc(OC)c1OC (stereo not given)
OVCAR-8 ovarian
  GI50: 0.24 µM
  TGI: > 50 µM
MALME-3M melanoma
  GI50: > 50 µM
  TGI: > 50 µM
NCI/ADR-RES ovarian
  GI50: 6.75 µM
  TGI: > 40.7 µM
SNB-75 CNS
  GI50: 0.183 µM
  TGI: > 50 µM
SF-539 CNS
  GI50: 0.147 µM
HT29 colon
  GI50: 0.166 µM
NCI-H460 lung
  GI50: 0.208 µM
  TGI: 1.68 µM
SN12C renal
  TGI: > 50 µM
SK-MEL-2 melanoma
  GI50: 0.173 µM
  TGI: 4.55 µM

## Cc1ccc(-c2nc(/C=N/Nc3cc(C)nc4ccc(Cl)cc34)c(C)o2)cc1
OVCAR-8 ovarian
  GI50: 1.65 µM
  TGI: 4.13 µM
MALME-3M melanoma
  GI50: 1.94 µM
  TGI: 3.67 µM
NCI/ADR-RES ovarian
  GI50: 2.1 µM
  TGI: 4.67 µM
SNB-75 CNS
  GI50: 1.55 µM
  TGI: 3.2 µM
SF-539 CNS
  GI50: 1.78 µM
  TGI: 3.29 µM
HT29 colon
  GI50: 0.664 µM
  TGI: 2.5 µM
NCI-H460 lung
  GI50: 1.93 µM
  TGI: 3.79 µM
SN12C renal
  GI50: 1.79 µM
  TGI: 3.49 µM
SK-MEL-2 melanoma
  GI50: 2.01 µM
  TGI: 4.11 µM
TK-10 renal
  GI50: 1.8 µM
  TGI: 3.32 µM

## CN(C)CC1CC/C(=C\c2ccc3c(c2)OCO3)C1=O (stereo not given)
OVCAR-8 ovarian
  TGI: 19.2 µM
MALME-3M melanoma
  TGI: 18.3 µM
NCI/ADR-RES ovarian
  TGI: 12.4 µM
SNB-75 CNS
  TGI: 28.5 µM
SF-539 CNS
  TGI: 31 µM
HT29 colon
  TGI: 59 µM
NCI-H460 lung
  TGI: 47.9 µM
SN12C renal
  TGI: 30.3 µM
SK-MEL-2 melanoma
  TGI: 22.8 µM
TK-10 renal
  TGI: 25.1 µM

## N#CC1=C(N)Oc2c(ccc3ccccc23)C1c1cc(=O)oc2ccc(Cl)cc12 (stereo not given)
OVCAR-8 ovarian
  GI50: 1.87 µM
  TGI: 24 µM
MALME-3M melanoma
  GI50: 18.1 µM
  TGI: 67.8 µM
NCI/ADR-RES ovarian
  GI50: 0.522 µM
  TGI: 36.8 µM
SNB-75 CNS
  GI50: 2.16 µM
  TGI: > 100 µM
SF-539 CNS
  GI50: 0.486 µM
  TGI: 5.57 µM
HT29 colon
  GI50: 1.91 µM
  TGI: 6.89 µM
NCI-H460 lung
  GI50: 0.466 µM
  TGI: 14 µM
SN12C renal
  GI50: 2.59 µM
  TGI: 45.4 µM
SK-MEL-2 melanoma
  GI50: 0.972 µM
  TGI: 44.7 µM
TK-10 renal
  GI50: 16.9 µM
  TGI: 73.1 µM

## CC/C(Cc1ccccc1)=C(\c1ccc(OCCN2CCCC2)cc1)c1ccc(OC(=O)NCc2ccccc2)cc1
OVCAR-8 ovarian
  GI50: 1.87 µM
  TGI: 3.67 µM
MALME-3M melanoma
  GI50: 1.68 µM
  TGI: 3.19 µM
NCI/ADR-RES ovarian
  GI50: 2.66 µM
  TGI: 10.3 µM
SNB-75 CNS
  GI50: 2.13 µM
  TGI: 6.53 µM
SF-539 CNS
  GI50: 1.7 µM
  TGI: 3.09 µM
HT29 colon
  GI50: 1.82 µM
  TGI: 3.47 µM
NCI-H460 lung
  GI50: 1.89 µM
  TGI: 3.42 µM
SN12C renal
  GI50: 1.81 µM
  TGI: 3.33 µM
SK-MEL-2 melanoma
  GI50: 2.09 µM
  TGI: 3.99 µM
TK-10 renal
  GI50: 1.76 µM
  TGI: 3.5 µM

## C#Cc1cccc(Nc2nc(Cl)nc3cc(NC(=O)CCl)ccc23)c1
OVCAR-8 ovarian
  GI50: 0.754 µM
  TGI: 2.65 µM
MALME-3M melanoma
  GI50: 1 µM
  TGI: 2.25 µM
NCI/ADR-RES ovarian
  GI50: 1.28 µM
  TGI: 13.6 µM
SNB-75 CNS
  GI50: 1.13 µM
  TGI: 5.13 µM
SF-539 CNS
  GI50: 2.36 µM
  TGI: 5.59 µM
HT29 colon
  GI50: 0.766 µM
  TGI: 4.43 µM
NCI-H460 lung
  GI50: 1.44 µM
  TGI: 4.24 µM
SN12C renal
  GI50: 0.637 µM
  TGI: 1.8 µM
SK-MEL-2 melanoma
  GI50: 1.16 µM
  TGI: 3.6 µM
TK-10 renal
  GI50: 1.74 µM
  TGI: 5.29 µM

## CN=C1C=CC(=C(c2ccc(N(C)C)cc2)c2ccc(N(C)C)cc2)C=C1
MALME-3M melanoma
  GI50: 0.406 µM
  TGI: 1.95 µM
NCI/ADR-RES ovarian
  GI50: 1.5 µM
  TGI: 4.83 µM
SNB-75 CNS
  GI50: 0.295 µM
  TGI: 1.04 µM
SF-539 CNS
  GI50: 0.319 µM
  TGI: 1.84 µM
HT29 colon
  GI50: 0.105 µM
  TGI: 0.496 µM
NCI-H460 lung
  GI50: 0.13 µM
  TGI: 0.909 µM
SN12C renal
  GI50: 0.163 µM
  TGI: 3.04 µM
SK-MEL-2 melanoma
  GI50: 0.202 µM
  TGI: 0.462 µM
TK-10 renal
  GI50: 0.218 µM
  TGI: 1.14 µM

## O=C(Nc1ccccc1I(=O)=O)C1CCCCC1
OVCAR-8 ovarian
  GI50: > 100 µM
  TGI: > 100 µM
MALME-3M melanoma
  GI50: > 100 µM
  TGI: > 100 µM
NCI/ADR-RES ovarian
  GI50: > 100 µM
  TGI: > 100 µM
SNB-75 CNS
  GI50: > 100 µM
  TGI: > 100 µM
SF-539 CNS
  GI50: > 100 µM
  TGI: > 100 µM
HT29 colon
  GI50: > 100 µM
  TGI: > 100 µM
NCI-H460 lung
  GI50: > 100 µM
  TGI: > 100 µM
SN12C renal
  GI50: > 100 µM
  TGI: > 100 µM
SK-MEL-2 melanoma
  GI50: > 100 µM
  TGI: > 100 µM
TK-10 renal
  GI50: > 100 µM
  TGI: > 100 µM

## CN1Cc2ccccc2/C=C\c2ccccc21
OVCAR-8 ovarian
  TGI: > 100 µM
MALME-3M melanoma
  TGI: > 100 µM
NCI/ADR-RES ovarian
  TGI: > 100 µM
SNB-75 CNS
  TGI: > 100 µM
SF-539 CNS
  TGI: > 100 µM
HT29 colon
  TGI: > 100 µM
NCI-H460 lung
  TGI: > 100 µM
SN12C renal
  TGI: > 100 µM
SK-MEL-2 melanoma
  TGI: 80.2 µM
TK-10 renal
  TGI: > 100 µM

## COC(=O)c1c(-c2cccs2)oc(-c2cccs2)c1C(=O)OC
OVCAR-8 ovarian
  GI50: 37.6 µM
  TGI: > 100 µM
MALME-3M melanoma
  GI50: 25 µM
  TGI: 64 µM
NCI/ADR-RES ovarian
  GI50: 31.6 µM
  TGI: > 94.5 µM
SNB-75 CNS
  GI50: > 73.6 µM
  TGI: > 100 µM
SF-539 CNS
  GI50: 84.4 µM
  TGI: > 100 µM
HT29 colon
  GI50: 60.2 µM
  TGI: > 100 µM
NCI-H460 lung
  GI50: 33.1 µM
  TGI: > 100 µM
SN12C renal
  GI50: 61.6 µM
  TGI: > 100 µM
SK-MEL-2 melanoma
  GI50: 39.5 µM
  TGI: > 100 µM
TK-10 renal
  GI50: 27.9 µM
  TGI: 82 µM

## C#CC1=CC(=O)C(OC)=CC1=O
MALME-3M melanoma
  TGI: 55.2 µM
NCI/ADR-RES ovarian
  TGI: > 100 µM
SNB-75 CNS
  TGI: 18.5 µM
SF-539 CNS
  TGI: > 100 µM
HT29 colon
  TGI: 62 µM
NCI-H460 lung
  TGI: > 100 µM
SN12C renal
  TGI: 31.7 µM
SK-MEL-2 melanoma
  TGI: 33.7 µM
TK-10 renal
  TGI: > 100 µM

## COc1ccc(-c2nc(-c3nc4ccc(C)cc4[nH]3)cc3c2[nH]c2ccccc23)cc1
OVCAR-8 ovarian
  GI50: 3.02 µM
  TGI: > 100 µM
MALME-3M melanoma
  GI50: 5.1 µM
  TGI: 72.5 µM
NCI/ADR-RES ovarian
  GI50: 3.72 µM
  TGI: > 100 µM
SNB-75 CNS
  GI50: 3.43 µM
  TGI: > 100 µM
SF-539 CNS
  GI50: 3.92 µM
  TGI: > 100 µM
HT29 colon
  GI50: 5.29 µM
  TGI: > 100 µM
NCI-H460 lung
  GI50: 2.99 µM
  TGI: > 100 µM
SN12C renal
  GI50: 3.96 µM
  TGI: > 100 µM
SK-MEL-2 melanoma
  GI50: 3.11 µM
  TGI: 9.22 µM
TK-10 renal
  GI50: 5.45 µM
  TGI: > 100 µM

Source: PubChem BioAssay (NCI)
